# Experiments:
# Format in all cases: in vivo
# PGC-1α [1] = assay: PGC-1α mRNA expression in kidneys of old mice (Example 2); conditions: kidneys of 21-month-old mice; 1 mg/kg body weight/day intraperitoneally for three weeks; FIG. 3A
# Method: (§1) FIGS. 3A-3F show mRNA expression of peroxisome proliferator-activated receptor-gamma coactivator (PGC)-1α (PGC-1α) (FIG. 3A), PGC-1β (FIG. 3B), ERR-alpha (ERRα) (FIG. 3C), p21 (FIG. 3D), interleukin (IL)-1β (FIG. 3E), and signal transducer and activator of transcription 3 (Stat3) (FIG. 3F) in the kidneys of 4-month old (“young”) and 21-month-old (“old”) mice, in which a cohort of old mice were administered a STING inhibitor (“SI”), C-176, as described in Example 2.
# (§2) A study was conducted to evaluate expression levels of various markers and cytokines under inflammatory conditions, and the impact of administering a STING inhibitor on expression and protein levels.
# (§3) In one aspect of the study, mRNA expression levels of PGC-1α, PGC-1β, ERRα, p21, IL-1β, and Stat3 were examined in kidneys of mice that are 4 months old (young) and kidneys of mice that are 21 months old (aged and marked by inflammation).
# (§4) In a second aspect of the study, an inhibitor of STING, C-176, was administered (1 mg/kg body weight/day, administered intraperitoneally, for three weeks) to the 21-month-old mice.
# PGC-1β = PGC-1β mRNA expression in kidneys of old mice (Example 2); conditions: kidneys of 21-month-old mice; 1 mg/kg body weight/day intraperitoneally for three weeks; FIG. 3B
# Method: as §1, §2, §3, §4
# ERRα = ERRα mRNA expression in kidneys of old mice (Example 2); conditions: kidneys of 21-month-old mice; 1 mg/kg body weight/day intraperitoneally for three weeks; FIG. 3C
# Method: as §1, §2, §3, §4
# p21 = p21 mRNA expression in kidneys of old mice (Example 2); conditions: kidneys of 21-month-old mice; 1 mg/kg body weight/day intraperitoneally for three weeks; FIG. 3D
# Method: as §1, §2, §3, §4
# IL-1β [2] = assay: IL-1β mRNA expression in kidneys of old mice (Example 2); conditions: kidneys of 21-month-old mice; 1 mg/kg body weight/day intraperitoneally for three weeks; FIG. 3E
# Method: as §1, §2, §3, §4
# Stat3 [3] = assay: Stat3 mRNA expression in kidneys of old mice (Example 2); conditions: kidneys of 21-month-old mice; 1 mg/kg body weight/day intraperitoneally for three weeks; FIG. 3F
# Method: as §1, §2, §3, §4
# PGC-1α [4] = assay: PGC-1α protein levels (immunoblot) in kidneys of old mice (Example 2); conditions: kidneys of 21-month-old mice; 1 mg/kg body weight/day intraperitoneally for three weeks; FIGS. 4A and 4B
# Method: (§5) FIGS. 4A-4D show PGC-1α protein levels presented as an immunoblot (FIG. 4A) and quantified (FIG. 4B), and p-Stat3 protein levels presented as an immunoblot (FIG. 4C) and quantified (FIG. 4D), in the kidneys of 4-month old (“young”) and 21-month-old (“old”) mice, in which a cohort of the old mice were administered a STING inhibitor (“SI”), C-176, as described in Example 2.
# as §2, §4
# Stat3 [5] = assay: Stat3 protein levels (immunoblot) in kidneys of old mice (Example 2); conditions: kidneys of 21-month-old mice; 1 mg/kg body weight/day intraperitoneally for three weeks; FIGS. 4C and 4D
# Method: as §5, §2, §4
# IL-1β [6] = assay: IL-1β mRNA expression in kidneys of db/db mice (Example 3); conditions: kidneys of 4-month-old db/db mice; 1 mg/kg body weight/day intraperitoneally for eight weeks; FIG. 5
# Method: (§6) A study was conducted to evaluate mRNA expression and protein levels of various markers and cytokines in kidneys of 4-month-old db/db mice, which is a model of type 2 diabetes due to a deficiency in leptin receptor activity, and in 4-month-old db/m mice, which are nondiabetic controls; and the effects of administering STING inhibitor C-176 (1 mg/kg body weight/day, administered intraperitoneally, for eight weeks) to these mice.
# p-Stat3 = p-Stat3 protein levels in kidneys of db/db mice (Example 3); conditions: kidneys of 4-month-old db/db mice; 1 mg/kg body weight/day intraperitoneally for eight weeks; FIGS. 6A and 6B
# Method: (§7) FIGS. 6A-6C show p-Stat3 protein levels presented as an immunoblot (FIG. 6A) and quantified (FIG. 6B), and protein levels of phospho-interferon regulatory factor (p-IRF) (FIG. 6C) in the kidneys of […] diabetic mice (“db/db”) and non-diabetic mice (“db/m”) mice, in which a cohort of the mice were administered STING inhibitor C-176, as described in Example 3.
# as §6
# p-IRF3 = p-IRF3 protein levels in kidneys of db/db mice (Example 3); conditions: kidneys of 4-month-old db/db mice; 1 mg/kg body weight/day intraperitoneally for eight weeks; FIG. 6C
# Method: as §7, §6
# [7] = tested on: inflammation in the kidneys of diabetic mice; assay: Inflammation in the kidneys of diabetic mice (Example 3); conditions: db/db mice; 1 mg/kg body weight/day intraperitoneally for eight weeks
# Method: as §6
# STING [8] = assay: STING mRNA expression in kidneys of young and old mice (Example 1); conditions: kidneys of 21-month-old mice; 25 mg/kg body weight/day intraperitoneally for eight weeks; FIG. 1A
# Method: (§8) FIGS. 1A-1B show mRNA expression of STING (FIG. 1A) and cyclic guanosine monophosphate-adenosine monophosphate (cyclic GMP-AMP) synthase (cGAS) (FIG. 1B) in the kidneys of 4-month old (“young”) and 21-month-old (“old”) mice, in which a cohort of mice were administered a pan estrogen-related receptor (ERR) agonist, as described in Example 1.
# (§9) A study was conducted to evaluate STING and cGAS under inflammatory conditions.
# (§10) In one aspect of the study, mRNA expression and protein levels of STING and cGAS were assessed in kidneys of mice that are 4 months old (young) and kidneys of mice that are 21 months old (aged and marked by inflammation).
# (§11) In a second aspect of the study, 4-month-old mice and 21-month-old mice were treated with a pan ERR agonist, SLU-PP-332 (25 mg/kg body weight/day, administered intraperitoneally, for eight weeks).
# cGAS [9] = assay: cGAS mRNA expression in kidneys of young and old mice (Example 1); conditions: kidneys of 21-month-old mice; 25 mg/kg body weight/day intraperitoneally for eight weeks; FIG. 1B
# Method: as §8, §9, §10, §11
# STING [10] = assay: STING protein levels (immunoblot) in kidneys of young and old mice (Example 1); conditions: kidneys of 21-month-old mice; 25 mg/kg body weight/day intraperitoneally for eight weeks; FIGS. 2A and 2B
# Method: (§12) FIGS. 2A-2D show STING protein levels presented as an immunoblot (FIG. 2A) and quantified (FIG. 2B), and cGAS protein levels presented as an immunoblot (FIG. 2C) and quantified (FIG. 2D), in the kidneys of 4-month old (“young”) and 21-month-old (“old”) mice, in which a cohort of mice were administered a pan ERR agonist, as described in Example 1.
# as §9, §10, §11
# cGAS [11] = assay: cGAS protein levels (immunoblot) in kidneys of young and old mice (Example 1); conditions: kidneys of 21-month-old mice; 25 mg/kg body weight/day intraperitoneally for eight weeks; FIGS. 2C and 2D
# Method: as §12, §9, §10, §11
structure (smiles),measurement,setting,value
"O=C(Nc1ccc(I)cc1)c1ccc([N+](=O)[O-])o1 [C-176, N-(4-iodophenyl)-5-nitro-2-furancarboxamide]",mRNA expression of PGC-1α,PGC-1α [1],reversed the decrease
same,mRNA expression of PGC-1β,PGC-1β,reversed the decrease
same,mRNA expression of ERRα,ERRα,reversed the decrease
same,mRNA expression of p21,p21,reversed the increase
same,mRNA expression of IL-1β,IL-1β [2],reversed the increase
same,mRNA expression of Stat3,Stat3 [3],reversed the increase
same,protein levels of PGC-1α,PGC-1α [4],reversed the decrease
same,protein levels of Stat3,Stat3 [5],reversed the increase
same,mRNA expression of IL-1β (activation of IL-1β),IL-1β [6],reversed the activation
same,p-Stat3 levels,p-Stat3,reversed the increase
same,p-IRF3 levels,p-IRF3,reversed the increase
same,inflammation in the kidneys of diabetic mice,[7],decreases inflammation
O=C(N/N=C/c1ccc2ccccc2c1)c1ccc(O)cc1 [SLU-PP-332],mRNA expression of STING,STING [8],significantly reversed the increase
same,mRNA expression of cGAS,cGAS [9],significantly reversed the increase
same,protein levels of STING,STING [10],significantly reversed the increase
same,protein levels of cGAS,cGAS [11],significantly reversed the increase
